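Tested at 5 concentrations; 48 h exposure; 96-well plates; endpoints linearly interpolated, else capped at highest concentration. The concentration for 50% growth inhibition is given as GI50.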 Active and inactive are the calls of the source. Rule as the data show it: active = GI50 up to about 1.1 µM and inactive = higher.
Legend:
Assay in all cases: NCI tumour cell line growth inhibition, 48 h
HOP-92 = tested on: HOP-92
MDA-MB-231 = tested on: MDA-MB-231
HCT-116 = tested on: HCT-116
SK-OV-3 = tested on: SK-OV-3
OVCAR-4 = tested on: OVCAR-4
KM12 = tested on: KM12
CCRF-CEM = tested on: CCRF-CEM
NCI/ADR-RES = tested on: NCI/ADR-RES
SW-620 = tested on: SW-620
ACHN = tested on: ACHN
MDA-N = tested on: MDA-N
UACC-62 = tested on: UACC-62
SK-MEL-5 = tested on: SK-MEL-5
BT-549 = tested on: BT-549
CAKI-1 = tested on: CAKI-1
SR = tested on: SR
UACC-257 = tested on: UACC-257
OVCAR-8 = tested on: OVCAR-8
DU-145 = tested on: DU-145
Malme-3M = tested on: Malme-3M
NCI-H522 = tested on: NCI-H522
SF-295 = tested on: SF-295
SF-539 = tested on: SF-539
SN12C = tested on: SN12C
IGROV-1 = tested on: IGROV-1
MDA-MB-435 = tested on: MDA-MB-435
M14 = tested on: M14
NCI-H226 = tested on: NCI-H226
EKVX = tested on: EKVX
RPMI-8226 = tested on: RPMI-8226
UO-31 = tested on: UO-31
MOLT-4 = tested on: MOLT-4
T47D = tested on: T47D
TK-10 = tested on: TK-10
OVCAR-5 = tested on: OVCAR-5
HCT-15 = tested on: HCT-15
786-0 = tested on: 786-0
SK-MEL-28 = tested on: SK-MEL-28
SK-MEL-2 = tested on: SK-MEL-2
SNB-19 = tested on: SNB-19
HL-60 = tested on: HL-60
A498 = tested on: A498
U-251 = tested on: U-251
SF-268 = tested on: SF-268
Hs-578T = tested on: Hs-578T
HT-29 = tested on: HT-29
K562 = tested on: K562
NCI-H23 = tested on: NCI-H23
COLO 205 = tested on: COLO 205
NCI-H460 = tested on: NCI-H460
PC-3 = tested on: PC-3
A549 = tested on: A549
SNB-75 = tested on: SNB-75
HOP-62 = tested on: HOP-62
HCC 2998 = tested on: HCC 2998
MCF7 = tested on: MCF7
LOX IMVI = tested on: LOX IMVI
RXF 393 = tested on: RXF 393
OVCAR-3 = tested on: OVCAR-3

## CCOC(=O)c1cnc(-n2[nH]c3c(c2=O)CCCC3)[nH]c1=O
HOP-92
  GI50: 0.859 µM (active)
MDA-MB-231
  GI50: 57.1 µM (inactive)
HCT-116
  GI50: 36.4 µM (inactive)
SK-OV-3
  GI50: 80.5 µM (inactive)
OVCAR-4
  GI50: 57.5 µM (inactive)
KM12
  GI50: 67.5 µM (inactive)
CCRF-CEM
  GI50: 28.8 µM (inactive)
NCI/ADR-RES
  GI50: 34.8 µM (inactive)
SW-620
  GI50: 35.2 µM (inactive)
ACHN
  GI50: 50.2 µM (inactive)
MDA-N
  GI50: 86.1 µM (inactive)
UACC-62
  GI50: 29.6 µM (inactive)
SK-MEL-5
  GI50: 75.2 µM (inactive)
BT-549
  GI50: 47.1 µM (inactive)
CAKI-1
  GI50: 48.1 µM (inactive)
SR
  GI50: 13.3 µM (inactive)
UACC-257
  GI50: 32.4 µM (inactive)
OVCAR-8
  GI50: 37.5 µM (inactive)
DU-145
  GI50: 57.9 µM (inactive)
Malme-3M
  GI50: 77.6 µM (inactive)
NCI-H522
  GI50: 52.4 µM (inactive)
SF-295
  GI50: 62.7 µM (inactive)
SF-539
  GI50: 48.1 µM (inactive)
SN12C
  GI50: 52.5 µM (inactive)
IGROV-1
  GI50: > 100 µM (inactive)
MDA-MB-435
  GI50: 47.8 µM (inactive)
M14
  GI50: 36.4 µM (inactive)
NCI-H226
  GI50: 47.1 µM (inactive)
EKVX
  GI50: 80.4 µM (inactive)
RPMI-8226
  GI50: 52.7 µM (inactive)
UO-31
  GI50: 54.6 µM (inactive)
MOLT-4
  GI50: 43 µM (inactive)
T47D
  GI50: > 100 µM (inactive)
TK-10
  GI50: > 100 µM (inactive)
OVCAR-5
  GI50: 82.4 µM (inactive)
HCT-15
  GI50: 44.1 µM
786-0
  GI50: 60 µM (inactive)
SK-MEL-28
  GI50: 20.9 µM (inactive)
SK-MEL-2
  GI50: 42.6 µM (inactive)
SNB-19
  GI50: > 100 µM (inactive)
HL-60
  GI50: 28.1 µM (inactive)
A498
  GI50: 62.8 µM (inactive)
U-251
  GI50: 39.7 µM (inactive)
SF-268
  GI50: 55.8 µM (inactive)
Hs-578T
  GI50: > 100 µM (inactive)
HT-29
  GI50: 40.4 µM (inactive)
K562
  GI50: 20.7 µM (inactive)
NCI-H23
  GI50: 72.8 µM (inactive)
COLO 205
  GI50: 26.2 µM (inactive)
NCI-H460
  GI50: 45.5 µM (inactive)
PC-3
  GI50: 57.4 µM (inactive)
A549
  GI50: 63.1 µM (inactive)

## Nc1ccccc1NC(=O)c1ccc(CNC(=O)OCc2cccnc2)cc1 [ENTINOSTAT]
HOP-92
  GI50: 0.989 µM (active)
MDA-MB-231
  GI50: 2.1 µM (inactive)
HCT-116
  GI50: 0.415 µM (active)
SNB-75
  GI50: 4.89 µM (inactive)
SK-OV-3
  GI50: 4.9 µM (inactive)
KM12
  GI50: > 23.4 µM (inactive)
CCRF-CEM
  GI50: 0.757 µM (active)
NCI/ADR-RES
  GI50: 1.24 µM (inactive)
SW-620
  GI50: 0.929 µM (active)
ACHN
  GI50: 1.88 µM (inactive)
MDA-N
  GI50: 0.778 µM (active)
UACC-62
  GI50: 0.622 µM (active)
HOP-62
  GI50: 2 µM (inactive)
SK-MEL-5
  GI50: 0.624 µM (active)
BT-549
  GI50: 3.5 µM (inactive)
UACC-257
  GI50: 1.59 µM (inactive)
OVCAR-8
  GI50: 0.993 µM (active)
DU-145
  GI50: 0.805 µM (active)
NCI-H522
  GI50: 0.908 µM (active)
SF-295
  GI50: 2.02 µM (inactive)
SF-539
  GI50: 3.76 µM (inactive)
SN12C
  GI50: 4.75 µM (inactive)
IGROV-1
  GI50: 2.78 µM (inactive)
M14
  GI50: 1.04 µM (active)
HCC 2998
  GI50: 1.41 µM (inactive)
NCI-H226
  GI50: 0.501 µM (active)
EKVX
  GI50: 1.72 µM (inactive)
RPMI-8226
  GI50: 0.158 µM (active)
UO-31
  GI50: 0.759 µM (active)
MOLT-4
  GI50: 0.557 µM (active)
T47D
  GI50: 0.708 µM (active)
MCF7
  GI50: 0.845 µM (active)
LOX IMVI
  GI50: 0.859 µM (active)
TK-10
  GI50: 0.92 µM (active)
OVCAR-5
  GI50: 0.125 µM (active)
HCT-15
  GI50: 3.56 µM
786-0
  GI50: 3.35 µM (inactive)
SK-MEL-28
  GI50: 1.97 µM (inactive)
SK-MEL-2
  GI50: 0.424 µM (active)
SNB-19
  GI50: 2.65 µM (inactive)
HL-60
  GI50: 0.659 µM (active)
RXF 393
  GI50: 2.16 µM (inactive)
A498
  GI50: 0.429 µM (active)
U-251
  GI50: 1.54 µM (inactive)
SF-268
  GI50: 2.43 µM (inactive)
Hs-578T
  GI50: 3.31 µM (inactive)
OVCAR-3
  GI50: 1.51 µM (inactive)
HT-29
  GI50: 0.524 µM (active)
K562
  GI50: 0.627 µM (active)
NCI-H23
  GI50: 1.38 µM (inactive)
COLO 205
  GI50: 1.17 µM (inactive)
NCI-H460
  GI50: 0.558 µM (active)
PC-3
  GI50: 2.88 µM (inactive)
A549
  GI50: 3 µM (inactive)
